From PMC4784888, “Activity Based High-Throughput Screening for Novel O-GlcNAc Transferase Substrates Using a Dynamic Peptide Microarray” (PLoS ONE, 2016) come the findings set out here.

Common to all, as to format: biochemical, human
Assay [1] deals with purified m-OGT. Nature of the assay: Ala scan of RBL-2_410–422 on peptide microarray. To be noted: 1 mM UDP-GlcNAc, 0.2 μg/μL purified m-OGT; for OGT activity against RBL-2_410–422 Ala mutants (in words): extra CG at NH2 terminal. How it is done:
(§1) One step OGT purification was performed using His60 Ni Gravity Flow Columns (Clontech) according to the manufacturer’s instructions. Briefly, the nickel column was equilibrated with a buffer containing 50 mM sodium phosphate, 300 sodium chloride, 20 mM imidazole, and pH 7.4, followed by incubation with cell lysate containing His tag OGT for 1h at 4°C. After washing several times using buffer containing 50 mM sodium phosphate, 300 sodium chloride, 40 mM imidazole, and pH 7.4, the recombinant OGT was eluted using elution buffer containing 50 mM sodium phosphate, 300 mM sodium chloride, 300 mM imidazole, and pH 7.4. The eluted fraction was concentrated through a 100,000 Da molecular weight cut off Amicon unit by centrifugation 10 min at 5000 RPM at 4°C.
(§2) Peptide O-GlcNAcylation was assessed using PamChip 4 microarray chips with a PamStation 12 instrument (Pamgene international, The Netherlands). The OGT enzyme reaction was prepared essentially as described[26] with minor modifications. Briefly, before addition of the enzyme reaction, the microarray was blocked with blocking buffer (1% BSA in TBS). After 30 cycles (2 cycles/min) blocking, the blocking buffer was aspirated and the microarray was incubated with 40 μL of the enzyme reaction containing OGT (lysate or purified), OGT reaction buffer (50 mM Tris—HCl, pH 7.5;1 mM DTT;12.5 mM MgCl2), a 1:1 pre-incubated mixture of anti-O-GlcNAc and FITC conjugated secondary antibody, and the sugar donor UDP-GlcNAc or water as a control for 480 cycles (2 cycles/min) at 30°C. The microarray was run in parallel by pumping the reaction up and down through the porous membrane at every cycle and a tiff image was obtained at every 20 cycles by a CCD camera inside the PamStation. O-GlcNAcylation of each peptide was detected by a fluorescent signal which was produced by an FITC conjugated antibody bound to the O-GlcNAc moiety on the peptide.
(§3) Image analysis was performed using BioNavigator 6 software (Pamgene international, The Netherlands). Briefly, each image was quantified by automated array grid finding and subsequent quantification of signal and local background for each individual spot. In this work, the signal median-minus-background value was used as the quantitative parameter for the O-GlcNAcylation of the peptide.
Synthesis of all the peptides was achieved by following a standard Fmoc SPPS strategy on a Symphony Multiple Peptide Synthesizer and starting from rink amide resin. The following Fmoc amino acids were used: Fmoc-Cys(Trt)-OH, Fmoc-Gly-OH, Fmoc-Lys(Boc)-OH, Fmoc-Glu(Otbu)-OH, Fmoc-Asn(Trt)-OH, Fmoc-Ser(tBu)-OH, Fmoc-Thr(tBu)-OH, Fmoc-Ala-OH, Fmoc-Pro-OH, Fmoc-Val-OH. Deprotection was performed using 20% piperidine in DMF, and coupling was performed using 1:0.9:2 amino acid/ HBTU/DIPEA in DMF. After completion of the synthesis, the protected peptidyl resins were incubated with a 10 mL mixture of TFA (trifluoroacetic acid): H2O: triisopropylsilane (TIPS): 1, 2-ethanedithiol (EDT) (9:0.5:0.25:0.25, v/v/v/v) and allowed to stir for 2 h at room temperature under a nitrogen atmosphere. The cleaving mixture was filtered and the resin was washed with TFA (2 mL) and DCM (4 mL). The residue was precipitated by treatment of precooled diethyl ether and centrifugation. Two times washing and centrifugation yielded the crude products in a pellet. The precipitated peptides were dissolved in water, frozen, and lyophilized. All products were stored at -20°C. Crude peptide analysis was carried out by LC-MS.
To further confirm this and investigate the role of this and surrounding amino acid residues in our activity based assay, we resynthesized the RBL-2 peptide present on the microarray and performed an Ala scan, thus replacing of all the possible O-GlcNAc sites (Ser and Thr) in RBL-2_420–422 (Fig 4A). To immobilize the peptides on the chip, all the peptides were prepared with an extra CG at the NH2 terminal to allow immobilization on the maleimide-based chip surface. […]

Assay [2] deals with m-OGT. Nature of the assay: UDP-Glo assay of RBL-2_410–422 peptides. How it is done:
as §1
In this work OGT activity was also determined using UDP-Glo™ Glycosyltransferase Assay according to the manufacturer’s instructions. This assay evaluates O-GlcNAcylation through monitoring UDP formation in glycosyltransferase reactions by luminescence. Briefly, OGT reactions were carried out in 100 μL final volume containing 0.5 mM UDP-GlcNAc, 6 μg purified/60 μg lysate enzyme, 100 μM peptide in OGT reaction buffer (50 mM Tris—HCl, pH 7.5;1 mM DTT;12.5 mM MgCl2). Reactions were incubated at room temperature for 2h. At the end of that period, each reaction was transferred in triplicate into a 96-well white microplate and was mixed with a 1:1 ratio of UDP-Glo Detection Reagent. After incubation at room temperature for 1h, the luminescence was recorded with a Mithras LB940 Multimode microplate reader using Mikro Win 2000 software (Berthold Technology, Germany).
To further confirm this and investigate the role of this and surrounding amino acid residues in our activity based assay, we resynthesized the RBL-2 peptide present on the microarray and performed an Ala scan, thus replacing of all the possible O-GlcNAc sites (Ser and Thr) in RBL-2_420–422 (Fig 4A). To immobilize the peptides on the chip, all the peptides were prepared with an extra CG at the NH2 terminal to allow immobilization on the maleimide-based chip surface. Cys 415 was replaced by an Ala to avoid cyclisation by disulfide bond formation or dual modes of immobilization (S2 Fig). […] The mutants T421A decreased the O-GlcNAcylation of RBL-2_420–422 peptide by 40% compared to the control (wild type with C415A). […] In addition, OGT activity against these peptides was further validated using the UDP-Glo assay, which measures the amount of UDP produced when GlcNAc is transferred from UDP-GlcNAc to the sugar accepting peptide. […] This might be because the UDP assay is more sensitive than the antibody-based detection.
Fig 4 S420A is a possible O-GlcNAc site in the RBL-2 protein. A, peptide mutant used for an Ala scan. For immobilization purposes, peptides were prepared with an extra CG at the N-terminus and Cys 415 was replaced by Ala. B, OGT activity against RBL-2_410–422 peptide mutants was determined using peptide microarray analysis with 0.2 μg/μL purified m-OGT and 1 mM UDP-GlcNAc. C, UDP-Glo assay was used to measure O-GlcNAcylation of RBL-2_410–422 peptide mutants as well. D, kinetic signals from the same microarray experiment of panel B are shown.
O-GlcNAcylation of wild type RBL-2-410-422 and C415A peptide was determined using both the UDP assay(A) and the microarray assay (B) with 1 mM UDP-GlcNAc and 0.2 μg/μL purified m-OGT. […] (TIF) Click here for additional data file.

In assay [3] the test system is purified m-OGT. Description: Inhibition of OGT activity by RBL-2_S420A 410–422 peptide on nuclear receptor interaction peptide microarray. Particulars: purified m-OGT (0.2 μg/μL), UDP-GlcNAc 0.5 mM; for inhibition of OGT activity (in words): peptide 0.5 mM. How it is done: as §1, §2, §3
We then used the identified substrate sequence as a starting point towards the discovery of novel selective OGT inhibitors. […] To test it, we determined its inhibitory effect on the O-GlcNAcylation of two OGT substrates identified in our work and a known OGT inhibitor was used as a positive control.
Fig 5 The RBL-2_S420A 410–422 peptide inhibited OGT activity. The inhibitory effect of RBL-2_S420A 410–422 peptide on OGT activity was determined on the nuclear receptor interaction peptide microarray. […]

Setting [4] is: microarray, control wild type with C415A.
Where [5] appears, read: UDP-Glo, luminescence, 0.5 mM UDP-GlcNAc, 6 μg purified enzyme, 100 μM peptide, 50 mM Tris-HCl pH 7.5, room temperature 2 h, triplicate.

Where no end group is shown, it is not given here.

With “C415A: RBL-2_410–422 peptide with Cys 415 replaced by an Ala (CGKENSPAVTPVSTA-NH2; UniProt Q08999 410-422, looked up, variant C415A)”, the “C415A effect on O-GlcNAcylation, overall statement” value in assay [1] (UDP assay and microarray) is recorded as “modest effect on O-GlcNAcylation”. In addition, the “OGT activity of C415A compared with wild type, UDP assay” value in assay [2] (UDP assay, 1 mM UDP-GlcNAc, 0.2 μg/μL purified m-OGT) is listed as “modest increase in OGT activity”.
For “RBL-2_S420A 410–422: S420A mutation peptide of RBL-2 410–422 tested as OGT inhibitor (CGKENSPAVTPVATA-NH2)”, the “inhibition of O-GlcNAcylation of NCOA6” value in assay [3] (500 μM S420A peptide, NCOA6_1479–1501 substrate) was found to be 50%. Further, in assay [3] (500 μM S420A peptide, WIPI 1 substrate), the “inhibition of O-GlcNAcylation of WIPI 1” value amounted to 50%. Further, the “inhibition of OGT activity (in words)” value in assay [3] was “still binds to the OGT active site and therefore inhibited OGT activity”; in assay [3] (listed as RBL-2_S420A 420–422), “significant inhibition of OGT activity”.
For S413A: Ala scan mutant of RBL-2_410–422, in assay [1] (setting [4]), the “OGT activity against RBL-2_410–422 Ala mutants (in words)” value is given as “did not show any effect”. The “O-GlcNAcylation activity in solution (in words)” value (“O-GlcNAcylation activity” for short) in assay [2] (setting [5]) is reported as “consistent with the microarray results”.
With “S420A: Ala scan mutant of RBL-2_410–422 (CGKENSPAVTPVATA-NH2)”, in assay [1] (setting [4]), the “OGT activity against RBL-2_410–422 Ala mutants (in words)” value is reported as “complete loss of OGT activity”. Besides, the “O-GlcNAcylation activity” value in assay [2] (setting [5]) is recorded as “consistent with the microarray results”.
As for “T417A: Ala scan mutant of RBL-2_410–422 (CGKENSPAVAPVSTA-NH2)”, the “OGT activity against RBL-2_410–422 Ala mutants (in words)” value in assay [1] (setting [4]) was “complete loss of OGT activity”. Also, the “remaining O-GlcNAcylation” value in assay [2] (setting [5]) is reported as 20%.
Take “T421A: Ala scan mutant of RBL-2_410–422 (CGKENSPAVTPVSAA-NH2)”: in assay [1] (setting [4]), the “decrease of O-GlcNAcylation compared to control” value is recorded as 40%. Moreover, the “O-GlcNAcylation activity” value in assay [2] (setting [5]) is “consistent with the microarray results”.
